Source: patent publication US11896704B2, “Compounds useful for the treatment and/or care of the skin, hair, nails and/or mucous membranes” (LUBRIZOL ADVANCED MATERIALS, INC., priority 2017, dated 2024)

Key:
[1] = test system: PER3 (period circadian clock 3); experiment: PER genes expression in young and old HEKa, real time PCR: PER3; format: cell-based, Human; settings: 0.5 mg/ml
Description: In Vitro Study of PER Genes Expression in Young and Old Human Epidermal Keratinocytes (HEKa) Using Real Time PCR Arrays. Human Epidermal Keratinocytes, (HEKa) cells (Life Technologies) from donor one and donor two are seeded at 3.0×10^5 cells/well in 12-well plates and incubated in culture medium, Keratinocyte growth medium supplemented with Mix C39016-CaCl2 solution (Promocell). For synchronization, cells were subjected to two alternative cycles of 12 hours each at 37° C. in 5% CO2 humidified air (day mode) and 33° C. in 5% CO2 humidified air (night mode). 12 hours after starting synchronization, cells are incubated with the synthetic peptide […] (PEP-1, H-[SEQ ID. NO. 2]-NH2) at 0.5 mg/ml in culture medium. Cells treated with medium alone are used as basal condition. At the end of synchronization, cell lysates are collected at 7:30 hour (early morning point). […] After RNA elution, quantification and analysis of purity of RNA samples are performed with a nanodrop (Thermo). […] SYBR Green binds to double-stranded DNA molecules and emits fluorescence which is quantified, and the fluorescence intensity is proportional to the amount of the product in the PCR reaction. […] Fold change relative to the expression of the sample genes and reference genes is calculated using normalized expression (ΔΔ(Ct)) method using CFX Manager SoftwareTM (BioRad).

[2] = test system: mitochondrial complex I (NADH dehydrogenase); experiment: Mitochondrial complex I activity in human dermal fibroblasts, colorimetric assay; format: cell-based; settings: HDFa, 48 hours
Description: Inhibition of Mitochondrial Complex I Activity Using an Assay Based on Colorimetric Detection. Human Dermal Fibroblasts from adult (HDFa, Life Technologies) are seeded at a density of 750.000 cells/75 cm^2 flask (one flask per condition) in culture medium M106 with Low Serum Growth Supplement (Life Technologies). Cells are grown during 8 days at 37° C. in 5% CO2 humidified air. Then, medium is removed and cells are treated with scalar dilutions of the peptide […] (PEP-1, H-[SEQ ID. NO. 2]-NH2) at 1, 0.5 and 0.1 mg/ml in culture medium during 48 hours at 37° C. in 5% CO2 humidified air. Non-treated cells incubated in culture medium alone are used as basal conditions. […] After 48 hours of treatment, cells are detached using trypsin and resuspended in 60 ul of Phosphate buffer saline (Sigma). Total protein concentration is measured by a Pierce BCA Protein Assay Kit (BCA Assay, Thermo Scientific) following manufacturer's protocol to adjust the final protein concentration between 700-1000 ug/ml. Briefly, standards and samples are dispensed and Working Reagent is added to the samples. After 30 minutes of incubation at 37° C., absorbance is measured with a microplate reader (Clariostar®, BMG) at 562 nm. Mitochondrial complex I activity is measured with Complex I enzyme activity microplate assay Kit (Abcam) according to the manufacture's protocol. This assay follows the oxidation of NADH to NAD coupled to the reduction of a specific colorimetric dye, leading to an increase in absorbance at 450 nm. In brief, 200 ul of each sample (adjusted to 700-1000 ug/ml of total protein amount) is incubated for 3 hours. After that, wells are washed several times and incubated with Assay Solution provided with the kit (composed by NADH and the specific dye). For the determination of mitochondrial complex I activity, colorimetric increase of Optical Density (OD) at 450 nm in a kinetic reaction along 1 hour is measured with a microplate reader (Clariostar©, BMG). Results are calculated as the rate of increase in OD at 450 nm between two points in the linear zone over time. The percentage of mitochondrial complex I activity relative to basal conditions after the treatment with […] (PEP-1, H-[SEQ ID. NO. 2]-NH2) is represented in Table 9. These values represent the mean for at least three independent assays.

Q: Which “Fold induction at 7:30 h respect to Basal condition (%)” value ([1]; PER3, HEKa from donor one) does the source give for “H-Phe-Trp-Met-Lys-Arg-Lys-Arg-Val-Pro-NH2 (H-FWMKRKRVP-NH2) [PEP-1]” here?
A: Its value is 182.5%.

Q: What about the “Fold induction at 7:30 h respect to Basal condition (%)” value ([1]; PER3, HEKa from donor two) of the same substance?
A: Its value is 249.0%.

Q: What about the “Percentage of mitochondrial complex I activity relative to basal condition (%)” value ([2]; 0.1 mg/mL) of the same substance?
A: The value was 83.23%.

Q: What about the “Percentage of mitochondrial complex I activity relative to basal condition (%)” value ([2]; 0.5 mg/mL) of the same substance?
A: Its value is 71.68%.

Q: And the “Percentage of mitochondrial complex I activity relative to basal condition (%)” value ([2]; 1 mg/mL)?
A: The value was 55.35%.
